Consider 1 molecule from US10047057B2, “Functionalized tyrosine kinase inhibitors modified with precious metal electrophiles and methods associated therewith” (WAKE FOREST UNIVERSITY, priority 2014, dated 2018).

One test deals with NCI-H460 cells. Nature of the test: Cell proliferation assay (Celltiter 96), NCI-H460. The note with it: Homo sapiens, NCI-H460, read-out: IC50 NCI-H460.
In a further test the test system is NCI-H1975 cells. Kind of test: Cell proliferation assay (Celltiter 96), NCI-H1975. The note with it: read-out: IC50 NCI-H1975; Table 1; IC50 ± S.D., two experiments in triplicate; L858R/T790M EGFR.

Method for NCI-H1975 cells: (§1) The cell line NCI-H460 is a model of a large-cell carcinoma and is characterized by wild-type EGFR-TK. By contrast, NCI-H1975 adenocarcinoma cells harbor a point mutation (L858R) in exon 21 as well as a secondary mutation (T790M) at the bottom of the hydrophobic ATP binding pocket.
(§2) The human non-small cell lung cancer cell lines, NCI-H460 (large cell) and NCI-H1975 (adenocarcinoma), were obtained from the American Type Culture Collection (Rockville, Md., USA). […] Cells were incubated at a constant temperature at 37° C. in a humidified atmosphere containing 5% CO2 and were subcultured every 2 to 3 days in order to maintain cells in logarithmic growth. The cytotoxicity studies were carried out according to a standard protocol using the Celltiter 96 aqueous nonradioactive cell proliferation assay kit (Promega, Madison, Wis.). Stock solutions (10 mM) of all drugs were made in DMF and serially diluted with media prior to incubation with cancer cells. IC50 values were calculated from dose-response curves using sigmoidal curve fits in GraphPad Prism (GraphPad Software, La Jolla, Calif.).
Method for NCI-H460 cells: as §1, §2

With `CCOc1cc2ncnc(Nc3ccc(F)c(Cl)c3)c2cc1N(C)C(=S)NC` [Compound 7, 1-(4-((3-Chloro-4-fluorophenyl)amino)-7-ethoxyquinazolin-6-yl)-1,3-dimethylthiourea], the IC50 (usually the concentration needed to halve the response being measured) in the test on NCI-H460 cells was 36 ± 4.4 µM; with NCI-H1975 cells it was 51.7 ± 1.1 µM.
